# In US11691980B2, “Liphagal analog and multi-targeted kinase inhibitor containing liphagal or analog thereof” (TOHOKU UNIVERSITY, priority 2017, dated 2023):
# Experiments:
# Assay in all cases: mobility shift assay
# Format in all cases: biochemical
# HPK2 = molecular target: T1, HPK2 (Homo sapiens, UniProt Q9H2X6)
# T1 construct: purchased Carna Biosciences
# RAF1_Cascade = molecular target: T2, RAF1_Cascade (Homo sapiens, UniProt P04049)
# T2 construct: purchased Carna Biosciences
# MST2 = molecular target: T3, MST2 (Homo sapiens, UniProt Q13188)
# T3 construct: purchased Carna Biosciences
# FGFR4(V550L) = molecular target: T4, FGFR4(V550L) (Homo sapiens, UniProt P22455, V550L)
# T4 construct: purchased Carna Biosciences
# TRKC = molecular target: T5, TRKC (Homo sapiens, UniProt Q16288)
# T5 construct: purchased Carna Biosciences
# PAK6 = molecular target: T6, PAK6 (Homo sapiens, UniProt Q9NQU5)
# T6 construct: purchased Carna Biosciences
# MAP3K1_Cascade = molecular target: T7, MAP3K1_Cascade (Homo sapiens, UniProt Q13233)
# T7 construct: purchased Carna Biosciences
# KKε = molecular target: T8, KKε (Homo sapiens, UniProt Q14164)
# T8 construct: purchased Carna Biosciences
# CHK1 = molecular target: T9, CHK1 (Homo sapiens, UniProt O14757)
# T9 construct: purchased Carna Biosciences
# EPHA2 = molecular target: T10, EPHA2 (Homo sapiens, UniProt P29317)
# T10 construct: purchased Carna Biosciences
# PAK5 = molecular target: T11, PAK5 (Homo sapiens, UniProt Q9P286)
# T11 construct: purchased Carna Biosciences
# IKKβ = molecular target: T12, IKKβ (Homo sapiens, UniProt O14920)
# T12 construct: purchased Carna Biosciences
# NPM1-ALK = molecular target: T13, NPM1-ALK (Homo sapiens, UniProt Q9UM73)
# T13 construct: purchased Carna Biosciences; the other entry of the earlier key: NPM1 (P06748, Nucleophosmin)
# PKCα = molecular target: T14, PKCα (Homo sapiens, UniProt P17252)
# T14 construct: purchased Carna Biosciences
# CLK1 = molecular target: T15, CLK1 (Homo sapiens, UniProt P49759)
# T15 construct: purchased Carna Biosciences
# M88K1 = molecular target: T16, M88K1 (Homo sapiens, UniProt Q9UPE1)
# T16 construct: purchased Carna Biosciences
# MAP2K1 Cascade = molecular target: T17, MAP2K1 Cascade (Homo sapiens, UniProt Q02750)
# T17 construct: purchased Carna Biosciences
# CDK5/p25 = molecular target: T18, CDK5/p25 (Homo sapiens, UniProt Q00535)
# T18 construct: purchased Carna Biosciences
# SIK = molecular target: T19, SIK (Homo sapiens, UniProt P57059)
# T19 construct: purchased Carna Biosciences
# PLK3 = molecular target: T20, PLK3 (Homo sapiens, UniProt Q9H4B4)
# T20 construct: purchased Carna Biosciences
# RET(M918T) = molecular target: T21, RET(M918T) (Homo sapiens, UniProt P07949, M918T)
# T21 construct: purchased Carna Biosciences
# MGC42105 = molecular target: T22, MGC42105 (Homo sapiens, UniProt Q8IY84)
# T22 construct: purchased Carna Biosciences
# TIE2 = molecular target: T23, TIE2 (Homo sapiens, UniProt Q02763)
# T23 construct: purchased Carna Biosciences
# TXK = molecular target: T24, TXK (Homo sapiens, UniProt P42681)
# T24 construct: purchased Carna Biosciences
# EPHA5 = molecular target: T25, EPHA5 (Homo sapiens, UniProt P54756)
# T25 construct: purchased Carna Biosciences
# MAP3K3_Cascade = details: 10 μM
# CK2α2/β = molecular target: T26, CK2α2/β (Homo sapiens, UniProt P19784)
# T26 construct: purchased Carna Biosciences
# ACK = molecular target: T27, ACK (Homo sapiens, UniProt Q07912)
# T27 construct: purchased Carna Biosciences
# PIM 3 = molecular target: T28, PIM 3 (Homo sapiens, UniProt Q86V86)
# T28 construct: purchased Carna Biosciences
# RET(S891A) = molecular target: T29, RET(S891A) (Homo sapiens, UniProt P07949, S891A)
# T29 construct: purchased Carna Biosciences
# ITK = molecular target: T30, ITK (Homo sapiens, UniProt Q08881)
# T30 construct: purchased Carna Biosciences
# LATS2 = molecular target: T31, LATS2 (Homo sapiens, UniProt Q9NRM7)
# T31 construct: purchased Carna Biosciences
# ALK(L1152lnsT) = details: 10 μM
# ALK(R1275Q) = molecular target: T32, ALK(R1275Q) (Homo sapiens, UniProt Q9UM73, R1275Q)
# T32 construct: purchased Carna Biosciences
# MAP2K3_Cascade = molecular target: T33, MAP2K3_Cascade (Homo sapiens, UniProt P46734)
# T33 construct: purchased Carna Biosciences
# MET = molecular target: T34, MET (Homo sapiens, UniProt P08581)
# T34 construct: purchased Carna Biosciences
# JAK1 = molecular target: T35, JAK1 (Homo sapiens, UniProt P23458)
# T35 construct: purchased Carna Biosciences
# DYRK1B = molecular target: T36, DYRK1B (Homo sapiens, UniProt Q9Y463)
# T36 construct: purchased Carna Biosciences
# DAPK1 = molecular target: T37, DAPK1 (Homo sapiens, UniProt P53355)
# T37 construct: purchased Carna Biosciences
# CDK2/CycA2 = molecular target: T38, CDK2/CycA2 (Homo sapiens, UniProt P24941)
# T38 construct: purchased Carna Biosciences
# CaMK2α = molecular target: T39, CaMK2α (Homo sapiens, UniProt Q9UQM7)
# T39 construct: purchased Carna Biosciences
# CDK2/CycE1 = molecular target: T40, CDK2/CycE1 (Homo sapiens, UniProt P24941)
# T40 construct: purchased Carna Biosciences
# T36 sequence (Q9Y463 whole entry): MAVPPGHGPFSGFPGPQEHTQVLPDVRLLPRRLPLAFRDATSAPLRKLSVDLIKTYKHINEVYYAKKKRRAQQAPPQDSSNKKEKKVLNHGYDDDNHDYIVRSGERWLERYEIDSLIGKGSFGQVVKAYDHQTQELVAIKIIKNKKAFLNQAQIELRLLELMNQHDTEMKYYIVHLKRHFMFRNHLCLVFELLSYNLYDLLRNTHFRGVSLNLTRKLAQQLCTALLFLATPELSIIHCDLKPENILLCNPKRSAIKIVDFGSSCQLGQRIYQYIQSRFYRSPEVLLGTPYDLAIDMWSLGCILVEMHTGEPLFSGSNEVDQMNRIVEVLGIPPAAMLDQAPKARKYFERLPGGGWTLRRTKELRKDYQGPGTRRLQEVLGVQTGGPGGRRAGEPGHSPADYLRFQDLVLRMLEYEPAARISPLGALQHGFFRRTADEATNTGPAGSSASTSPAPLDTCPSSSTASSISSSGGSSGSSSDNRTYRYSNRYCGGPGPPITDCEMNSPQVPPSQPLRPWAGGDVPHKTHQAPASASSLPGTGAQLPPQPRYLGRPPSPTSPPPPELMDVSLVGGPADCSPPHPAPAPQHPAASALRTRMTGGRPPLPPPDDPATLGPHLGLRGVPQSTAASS
# T20 sequence (Q9H4B4 whole entry): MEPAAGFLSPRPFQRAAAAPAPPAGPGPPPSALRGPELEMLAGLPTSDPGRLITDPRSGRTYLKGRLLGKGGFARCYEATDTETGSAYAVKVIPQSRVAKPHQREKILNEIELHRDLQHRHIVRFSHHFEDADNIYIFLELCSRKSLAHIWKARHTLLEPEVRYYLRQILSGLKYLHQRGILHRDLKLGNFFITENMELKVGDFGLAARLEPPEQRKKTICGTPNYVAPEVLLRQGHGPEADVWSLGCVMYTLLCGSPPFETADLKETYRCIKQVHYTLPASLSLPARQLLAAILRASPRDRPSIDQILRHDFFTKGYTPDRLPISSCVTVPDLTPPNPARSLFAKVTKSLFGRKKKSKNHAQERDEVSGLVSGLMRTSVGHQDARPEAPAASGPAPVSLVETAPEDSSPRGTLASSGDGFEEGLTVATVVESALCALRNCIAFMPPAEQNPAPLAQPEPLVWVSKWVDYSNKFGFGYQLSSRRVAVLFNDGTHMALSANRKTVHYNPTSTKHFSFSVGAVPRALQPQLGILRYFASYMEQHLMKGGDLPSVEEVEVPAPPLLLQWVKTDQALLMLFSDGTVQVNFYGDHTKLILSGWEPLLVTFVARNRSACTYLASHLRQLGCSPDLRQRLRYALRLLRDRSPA
# T2 sequence (P04049 whole entry): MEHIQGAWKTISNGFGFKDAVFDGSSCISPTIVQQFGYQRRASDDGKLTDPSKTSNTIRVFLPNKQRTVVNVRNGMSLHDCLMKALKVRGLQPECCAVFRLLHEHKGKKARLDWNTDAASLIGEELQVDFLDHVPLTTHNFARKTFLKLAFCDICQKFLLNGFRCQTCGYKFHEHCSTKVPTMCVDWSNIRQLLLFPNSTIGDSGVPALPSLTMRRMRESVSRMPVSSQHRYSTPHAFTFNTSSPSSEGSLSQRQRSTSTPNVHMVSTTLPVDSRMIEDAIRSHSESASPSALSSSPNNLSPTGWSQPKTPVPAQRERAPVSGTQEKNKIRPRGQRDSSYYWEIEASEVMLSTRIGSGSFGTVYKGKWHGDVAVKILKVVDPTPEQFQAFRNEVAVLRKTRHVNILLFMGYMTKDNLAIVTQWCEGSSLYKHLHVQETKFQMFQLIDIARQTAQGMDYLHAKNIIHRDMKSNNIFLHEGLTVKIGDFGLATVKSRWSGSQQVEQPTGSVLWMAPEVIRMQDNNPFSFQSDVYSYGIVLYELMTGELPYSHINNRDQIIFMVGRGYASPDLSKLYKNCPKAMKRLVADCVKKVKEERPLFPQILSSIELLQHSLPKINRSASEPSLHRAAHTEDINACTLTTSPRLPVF
# T25 sequence (P54756 25-1037): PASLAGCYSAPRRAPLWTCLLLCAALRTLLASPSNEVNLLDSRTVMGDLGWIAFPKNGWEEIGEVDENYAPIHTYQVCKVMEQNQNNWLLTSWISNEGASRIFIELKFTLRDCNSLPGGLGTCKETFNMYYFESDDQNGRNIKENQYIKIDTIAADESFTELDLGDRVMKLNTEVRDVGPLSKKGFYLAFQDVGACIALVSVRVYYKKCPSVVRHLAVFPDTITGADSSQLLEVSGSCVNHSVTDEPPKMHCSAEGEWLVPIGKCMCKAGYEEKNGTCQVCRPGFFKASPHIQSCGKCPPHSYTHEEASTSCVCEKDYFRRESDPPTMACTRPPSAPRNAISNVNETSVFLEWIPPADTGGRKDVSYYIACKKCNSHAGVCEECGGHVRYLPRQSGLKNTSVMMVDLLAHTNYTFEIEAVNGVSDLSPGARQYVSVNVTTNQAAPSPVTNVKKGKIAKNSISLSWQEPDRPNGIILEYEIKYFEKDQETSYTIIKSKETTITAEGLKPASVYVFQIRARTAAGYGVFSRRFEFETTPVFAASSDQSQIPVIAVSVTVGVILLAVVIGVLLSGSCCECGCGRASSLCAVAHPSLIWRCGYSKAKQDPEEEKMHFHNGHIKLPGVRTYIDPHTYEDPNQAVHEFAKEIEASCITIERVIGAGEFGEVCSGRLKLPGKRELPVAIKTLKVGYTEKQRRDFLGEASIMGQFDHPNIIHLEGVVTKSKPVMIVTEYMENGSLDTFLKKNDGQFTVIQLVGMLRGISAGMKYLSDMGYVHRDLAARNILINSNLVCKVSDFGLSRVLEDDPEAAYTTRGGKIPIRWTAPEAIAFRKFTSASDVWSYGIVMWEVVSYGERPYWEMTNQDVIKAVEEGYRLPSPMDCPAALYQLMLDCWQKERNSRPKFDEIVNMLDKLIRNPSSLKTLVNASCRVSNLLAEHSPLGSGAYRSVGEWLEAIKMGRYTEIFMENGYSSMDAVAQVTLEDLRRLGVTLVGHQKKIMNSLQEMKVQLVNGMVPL
# T30 sequence (Q08881 whole entry): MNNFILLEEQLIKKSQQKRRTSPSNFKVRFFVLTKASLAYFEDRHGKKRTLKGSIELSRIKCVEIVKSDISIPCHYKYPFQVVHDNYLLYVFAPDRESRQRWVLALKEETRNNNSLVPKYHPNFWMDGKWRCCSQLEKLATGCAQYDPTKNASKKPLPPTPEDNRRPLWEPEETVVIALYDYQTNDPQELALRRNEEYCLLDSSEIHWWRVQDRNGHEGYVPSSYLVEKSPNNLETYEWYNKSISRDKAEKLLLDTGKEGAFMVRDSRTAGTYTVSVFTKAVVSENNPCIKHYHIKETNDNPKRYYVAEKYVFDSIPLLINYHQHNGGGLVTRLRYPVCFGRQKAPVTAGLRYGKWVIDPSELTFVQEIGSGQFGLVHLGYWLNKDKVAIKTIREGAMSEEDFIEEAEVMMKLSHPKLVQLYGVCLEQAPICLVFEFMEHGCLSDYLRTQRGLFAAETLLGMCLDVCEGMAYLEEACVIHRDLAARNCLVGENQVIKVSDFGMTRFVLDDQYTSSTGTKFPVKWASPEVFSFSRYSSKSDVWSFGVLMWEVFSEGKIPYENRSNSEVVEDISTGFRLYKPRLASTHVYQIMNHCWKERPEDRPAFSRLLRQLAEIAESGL
# T23 sequence (Q02763 23-1124): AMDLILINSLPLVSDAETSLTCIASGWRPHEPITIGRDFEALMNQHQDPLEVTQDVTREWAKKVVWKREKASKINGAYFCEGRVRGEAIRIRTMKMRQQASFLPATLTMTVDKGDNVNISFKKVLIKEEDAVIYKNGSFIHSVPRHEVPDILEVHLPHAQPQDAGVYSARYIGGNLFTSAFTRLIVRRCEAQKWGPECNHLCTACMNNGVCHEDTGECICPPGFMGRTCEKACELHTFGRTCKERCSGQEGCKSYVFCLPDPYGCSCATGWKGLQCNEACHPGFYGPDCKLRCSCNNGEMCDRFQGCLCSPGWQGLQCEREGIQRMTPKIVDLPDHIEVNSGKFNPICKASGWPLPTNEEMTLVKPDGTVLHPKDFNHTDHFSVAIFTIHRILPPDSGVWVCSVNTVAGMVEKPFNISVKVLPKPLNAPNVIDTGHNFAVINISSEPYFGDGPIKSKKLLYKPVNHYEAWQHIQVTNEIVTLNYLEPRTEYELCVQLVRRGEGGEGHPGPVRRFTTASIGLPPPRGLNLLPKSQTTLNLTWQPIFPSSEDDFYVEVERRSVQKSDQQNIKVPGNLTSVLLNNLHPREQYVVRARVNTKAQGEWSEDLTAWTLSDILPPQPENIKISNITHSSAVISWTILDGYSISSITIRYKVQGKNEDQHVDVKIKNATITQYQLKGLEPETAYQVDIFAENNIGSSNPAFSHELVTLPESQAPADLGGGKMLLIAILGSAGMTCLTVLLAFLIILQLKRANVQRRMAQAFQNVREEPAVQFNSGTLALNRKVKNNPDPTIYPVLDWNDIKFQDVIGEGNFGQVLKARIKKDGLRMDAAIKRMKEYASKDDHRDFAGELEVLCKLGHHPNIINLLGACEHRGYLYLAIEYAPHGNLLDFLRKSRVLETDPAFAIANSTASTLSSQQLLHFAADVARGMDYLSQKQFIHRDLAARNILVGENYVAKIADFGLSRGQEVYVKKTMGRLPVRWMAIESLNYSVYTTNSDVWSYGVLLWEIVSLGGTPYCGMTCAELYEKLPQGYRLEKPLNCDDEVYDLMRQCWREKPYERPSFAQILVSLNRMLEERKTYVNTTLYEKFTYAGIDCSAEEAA
# T33 sequence (P46734 whole entry): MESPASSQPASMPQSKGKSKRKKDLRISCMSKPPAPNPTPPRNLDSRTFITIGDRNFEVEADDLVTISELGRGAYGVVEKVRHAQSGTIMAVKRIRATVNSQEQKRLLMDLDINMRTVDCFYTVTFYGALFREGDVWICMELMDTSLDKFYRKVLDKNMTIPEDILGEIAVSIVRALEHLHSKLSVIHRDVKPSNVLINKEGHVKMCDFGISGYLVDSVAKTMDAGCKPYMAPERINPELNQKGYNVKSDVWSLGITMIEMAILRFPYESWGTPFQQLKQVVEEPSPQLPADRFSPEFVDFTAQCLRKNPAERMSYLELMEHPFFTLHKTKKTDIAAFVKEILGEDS
compound,measurement,setting,value
"C[C@@H]1CC[C@H]2C(C)(C)CCC[C@]2(C)c2c1oc1c(C=O)c(O)c(O)cc21 [LG-1, liphagal]",inhibition at 10 µM,HPK2,27%
same,inhibition at 10 µM,RAF1_Cascade,15.3%
same,inhibition at 10 µM,MST2,7.6%
same,inhibition at 10 µM,FGFR4(V550L),7.8%
same,inhibition at 10 µM,TRKC,11.3%
same,inhibition at 10 µM,PAK6,-99.3%
same,inhibition at 10 µM,MAP3K1_Cascade,26.4%
same,inhibition at 10 µM,KKε,-6.3%
same,inhibition at 10 µM,CHK1,-15.3%
same,inhibition at 10 µM,EPHA2,2.6%
same,inhibition at 10 µM,PAK5,-2.5%
same,inhibition at 10 µM,IKKβ,2.4%
same,inhibition at 10 µM,NPM1-ALK,2.3%
same,inhibition at 10 µM,PKCα,-8%
same,inhibition at 10 µM,CLK1,30.1%
same,inhibition at 10 µM,M88K1,9.3%
same,inhibition at 10 µM,MAP2K1 Cascade,4.1%
same,inhibition at 10 µM,CDK5/p25,17.8%
same,inhibition at 10 µM,SIK,33.7%
same,inhibition at 10 µM,PLK3,31.1%
same,inhibition at 10 µM,RET(M918T),5.9%
same,inhibition at 10 µM,MGC42105,-1.7%
same,inhibition at 10 µM,TIE2,11.7%
same,inhibition at 10 µM,TXK,23.1%
same,inhibition at 10 µM,EPHA5,2.3%
same,% Inhibition,MAP3K3_Cascade,48.8%
same,inhibition at 10 µM,CK2α2/β,9%
same,inhibition at 10 µM,ACK,8.4%
same,inhibition at 10 µM,PIM 3,28.9%
same,inhibition at 10 µM,RET(S891A),2.1%
same,inhibition at 10 µM,ITK,-6.5%
same,inhibition at 10 µM,LATS2,-0.6%
same,% Inhibition,ALK(L1152lnsT),−0.2%
same,inhibition at 10 µM,ALK(R1275Q),-0.5%
same,inhibition at 10 µM,MAP2K3_Cascade,25.6%
same,inhibition at 10 µM,MET,-1.3%
same,inhibition at 10 µM,JAK1,14.9%
same,inhibition at 10 µM,DYRK1B,21.8%
same,inhibition at 10 µM,DAPK1,1.8%
same,inhibition at 10 µM,CDK2/CycA2,10.3%
same,inhibition at 10 µM,CaMK2α,-0.5%
same,inhibition at 10 µM,CDK2/CycE1,6.9%
